Among the data in PubChem BioAssay (NCI) are GI50 and TGI values, retold here.

Among the test systems are SK-MEL-5 melanoma; OVCAR-5 ovarian; HCT-15 colon; OVCAR-3 ovarian; U251 CNS; RXF 393 renal; HOP-62 NSCLC; UACC-257 melanoma; MDA-MB-231 breast; K-562 leukemia.
Test in all cases: NCI-60 cell line screen, 48 h

The structures appear in SMILES notation. Values joined by “and” are separate entries in the source; they are usually repeats but may differ in a detail not shown here. Equal values may be shown once.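 96-well plates; 48 h exposure; 5 concentrations. Endpoints by linear interpolation between flanking doses. Not reached: highest tested concentration assigned. GI50 marks 50% less growth. The concentration for full growth arrest is given as TGI.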

On to `C[C@@H](Oc1ccc2[nH]nc(/C=C/c3cnn(CCO)c3)c2c1)c1c(Cl)cncc1Cl`, for which the GI50 with SK-MEL-5 melanoma is 0.963 µM; in the assay on OVCAR-5 ovarian, 0.166 µM; with HCT-15 colon, 0.197 µM; in the assay on OVCAR-3 ovarian, 0.462 µM; with U251 CNS, 0.142 µM; in the assay on RXF 393 renal, 0.0288 µM. In addition, the GI50 with HOP-62 NSCLC is 0.108 µM; in the assay on UACC-257 melanoma it was 1.43 µM; in the assay with MDA-MB-231 breast, 0.357 µM; in the assay on K-562 leukemia it was 0.0249 µM. Also, the TGI in the assay on SK-MEL-5 melanoma was found to be 3.6 µM; with OVCAR-5 ovarian it was 2.29 µM; with HCT-15 colon, 8.38 µM; in the assay on OVCAR-3 ovarian it was 3.56 µM; in the assay on U251 CNS, 2.41 µM; with RXF 393 renal, 0.267 µM. The TGI in the assay on HOP-62 NSCLC is 3.06 µM; in the assay on UACC-257 melanoma, 6.29 µM; in the assay on MDA-MB-231 breast it was above 26.5 µM; in the assay with K-562 leukemia it was above 33.9 µM.

Regarding `CC(=O)c1cc2c(c3ccsc13)-c1ccccc1CC2`, the GI50 with SK-MEL-5 melanoma was 12.7 µM; in the assay with OVCAR-5 ovarian, 39.4 µM; with HCT-15 colon, 22.3 µM; in the assay with OVCAR-3 ovarian, 25.4 µM; with U251 CNS it was 34.7 µM; with RXF 393 renal, 28.6 µM. Besides, the GI50 was 36.4 µM in the assay with HOP-62 NSCLC, 47.1 µM in the assay with UACC-257 melanoma, 16.4 µM in the assay on MDA-MB-231 breast and 14.3 µM with K-562 leukemia. Besides, the TGI was 35.7 µM with SK-MEL-5 melanoma; above 100 µM in the assay on OVCAR-5 ovarian; above 100 µM with HCT-15 colon; above 100 µM in the assay on OVCAR-3 ovarian; above 100 µM in the assay on U251 CNS; above 100 µM with RXF 393 renal. Moreover, the TGI in the assay with HOP-62 NSCLC is above 100 µM; in the assay with UACC-257 melanoma it was above 100 µM; with MDA-MB-231 breast, 67.1 µM; with K-562 leukemia it was 90.5 µM.

On to `CC(=O)OC1CCC2(C)C(=CCC3C4CCC5(OC6CC(C)CN(C(C)=O)C6C5C)C(C)=C4C(=O)C32)C1` (centres undefined), for which the TGI was 21.9 µM with SK-MEL-5 melanoma; 46.6 µM in the assay with OVCAR-5 ovarian; 33.6 µM in the assay on HCT-15 colon; 72.6 µM in the assay on OVCAR-3 ovarian; 30.8 µM with U251 CNS; 32.2 µM with RXF 393 renal. Moreover, the TGI with HOP-62 NSCLC is 46.4 µM; in the assay with UACC-257 melanoma it was 27.3 µM; with MDA-MB-231 breast, 33.3 µM; in the assay on K-562 leukemia, 52.7 µM.

For `CCCCCCCCCCCCCC(=O)C(C)N` (centres undefined), the GI50 in the assay on SK-MEL-5 melanoma was 17.9 µM; with OVCAR-5 ovarian it was 10.6 µM; with HCT-15 colon it was 0.917 µM; in the assay with OVCAR-3 ovarian, 14.1 µM; in the assay with U251 CNS it was 8.29 µM; with RXF 393 renal it was 4.46 µM. Moreover, the GI50 is 4.76 µM in the assay with HOP-62 NSCLC, 18.6 µM with UACC-257 melanoma, 2.37 µM in the assay on MDA-MB-231 breast and 2.41 µM in the assay on K-562 leukemia. In addition, the TGI was determined as 32.2 µM in the assay with SK-MEL-5 melanoma; 23.8 µM with OVCAR-5 ovarian; 4 µM in the assay on HCT-15 colon; 28.3 µM in the assay with OVCAR-3 ovarian; 21.7 µM in the assay on U251 CNS; 17 µM in the assay with RXF 393 renal. Moreover, the TGI with HOP-62 NSCLC turned out to be 16.9 µM; in the assay on UACC-257 melanoma it was 34.1 µM; with MDA-MB-231 breast it was 6.06 µM; in the assay on K-562 leukemia, 11.1 µM.

For `O=C1C(=O)c2ccccc2C(O)=C1CC=C(Cl)Cl`, the GI50 with SK-MEL-5 melanoma is 3.54 µM; in the assay on OVCAR-5 ovarian, 17.2 µM and 28.3 µM; with HCT-15 colon, 0.424 µM; with OVCAR-3 ovarian it was 9.76 µM and 15 µM; in the assay with U251 CNS, 2.17 µM and 2.01 µM; in the assay with RXF 393 renal, 13.8 µM and 13.7 µM. For the same compound, the GI50 is 9.44 µM and 14 µM with HOP-62 NSCLC; 3.59 µM with MDA-MB-231 breast; 0.987 µM and 3.19 µM in the assay with K-562 leukemia. The TGI is 22.6 µM and 43 µM and 21.6 µM in the assay on SK-MEL-5 melanoma; 195 µM and > 100 µM in the assay with OVCAR-5 ovarian; 51.7 µM and 159 µM and > 100 µM in the assay on HCT-15 colon; 38.9 µM and 70.8 µM and 70.3 µM with OVCAR-3 ovarian; > 85.8 µM and 138 µM and > 100 µM in the assay with U251 CNS; 76.9 µM and 203 µM and 97.9 µM with RXF 393 renal. The TGI with HOP-62 NSCLC is 64.1 µM and 61 µM and > 100 µM; with UACC-257 melanoma, 58.2 µM and 65.8 µM and 65.3 µM; with MDA-MB-231 breast, > 52.8 µM and 119 µM and 56.2 µM; in the assay on K-562 leukemia, > 41.5 µM and 175 µM and > 100 µM.

Turning to `COc1cc(NCc2ccccc2O)c2ncccc2c1`, the GI50 in the assay on SK-MEL-5 melanoma was 10.1 µM; in the assay on OVCAR-5 ovarian, 80.3 µM; in the assay with HCT-15 colon, 7.09 µM; in the assay on OVCAR-3 ovarian, 20.6 µM; in the assay with U251 CNS, 23.7 µM; in the assay on RXF 393 renal, 18.5 µM. For the same compound, the GI50 with HOP-62 NSCLC is 19.7 µM; in the assay with UACC-257 melanoma, 19.5 µM; with MDA-MB-231 breast, 14.3 µM; with K-562 leukemia, 17.2 µM. The TGI in the assay with SK-MEL-5 melanoma was 23.4 µM; in the assay with OVCAR-5 ovarian, above 100 µM; with HCT-15 colon it was above 100 µM; in the assay with OVCAR-3 ovarian it was 84.5 µM; with U251 CNS, above 100 µM; with RXF 393 renal, 68.8 µM. Also, the TGI is above 100 µM in the assay with HOP-62 NSCLC, 70.7 µM in the assay with UACC-257 melanoma, above 100 µM with MDA-MB-231 breast and above 100 µM in the assay on K-562 leukemia.
